According to article PMC4035770 (Pharmaceuticals, 2014):

How the values were obtained:
[1] = Microsomal metabolic stability screen, pooled human intestinal microsomes (HIM); format: in vitro ADME; details: 10 µM prodrug, 0.02 mg/mL HIM, NADPH regenerating system, 37 °C, 60 min, n = 2; LOD 0.1 ng/mL
Description: Human intestinal microsome (HIM) stock solution preparation. HIM (0.2 mL) stock was added to PBS solution (9.8 mL). Final concentration; 0.2 mg/mL.
(§1) Microsomes, NADPH regenerating solutions A and B were thawed rapidly to 37 °C, then kept on wet ice until ready for use. A stock solution of the prodrug (5 mM) was prepared in ACN. To a 1.7 mL microcentrifuge tube in a 37 °C water bath was added the phosphate buffered saline solution (349 µL), the NADPH regenerating solution A (50 µL), the NADPH regenerating solution B (50 µL), and the prodrug solution (1 µL). After incubation for 5 min, microsome solution (50 µL) was added and the metabolism was initiated. The tube was vortex mixed. The final concentrations in this solution was 10 µM prodrug, 0.1 mg/mL HLM or 0.02 mg/mL HIM, 1.3 mM NADP^+, 0.4 U/mL glucose-6-phosphate dehydrogenase and 0.2% organic solvent. This solution was incubated for 60 min at 37 °C. The reaction was quenched by addition of acetonitrile (500 µL). The mixture was centrifuged at 10,000 × g for 10 min. The supernatant was analyzed by LC-MS analysis.
The intestinal cells contain cytochome P450 enzymes, flavin monoxygenases, esterases and UDP glucuroyl transferases. Condition III involved the use of pooled human intestinal microsomes (HIM) in order to simulate the potential metabolism that occurs during absorption and passage through the intestinal wall.

[2] = Screening incubation in USP simulated intestinal fluid (SIF); details: incubation 37 °C, one hour, n = 2; <LOD = bupropion, its metabolites or other prodrugs not detected; LOD 0.1 ng/mL
Description: USP simulated intestinal fluid preparation. Monobasic potassium phosphate (0.068 g) was dissolved in 2.5 mL of water and mixed. Sodium hydroxide (0.77 mL of 0.2 M) and water (5.0 mL) were added. Pancreatin (0.1 g) was added and the pH adjusted with either 0.2 M sodium hydroxide or 0.2 M hydrochloric acid to a pH of 6.8 ± 0.1. The solution was diluted to 10 mL with water.
(§2) Pepsin is most efficient at cleaving peptide bonds between hydrophobic and aromatic amino acids such as phenylalanine, tryptophan and tyrosine. In order to simulate the pH and digestive enzymes of the stomach, USP simulated gastric fluid (SGF) was used. Conditions in the intestine were simulated using USP simulated intestinal fluid (SIF).
(§3) One hour metabolism or hydrolysis was considered to be sufficient time to generate detectable levels of metabolites, bearing in mind the likely exposure time in vivo. A blank media was used in each analysis to subtract a background from each LC-MS sample chromatogram. A t0 sample was also used to identify impurities related to each prodrug.
(§4) After one hour incubation of each compound in the selected media, the mixture was quenched with acetonitrile and the sample was centrifuged to remove precipitated proteins. The supernatant solution was analyzed immediately by LC-MS using data dependent acquisition analysis.
(§5) This transformation is commonly used to assess activity of oxidative enzyme CYP2B6 in human liver and intestinal microsomes. […] It was important to report if any of the other prodrugs were detected if for instance a possible multistep-prodrug was found.

[3] = Screening incubation in pooled human plasma (PHP); format: in vitro ADME; details: incubation 37 °C, one hour, n = 2; <LOD = bupropion, its metabolites or other prodrugs not detected; LOD 0.1 ng/mL
Source text: Pooled human plasma solution preparation. Citrated human plasma was pooled together from three separate donors.
Finally, pooled human plasma (PHP) was used to evaluate the prodrug stability/activation in blood since the plasma fraction contains much of the hydrolase activity in blood.

[4] = Screening incubation in USP simulated gastric fluid (SGF); details: incubation 37 °C, one hour, n = 2; <LOD = bupropion, its metabolites or other prodrugs not detected; LOD 0.1 ng/mL
Description: USP simulated gastric fluid preparation. Sodium chloride (0.02 g) and purified pepsin (0.032 g) that is derived from porcine stomach mucosa with an activity of 800 to 2,500 units per mg of protein were dissolved in 0.07 mL of concentrated hydrochloric acid and sufficient water to make 10 mL.
as §2, §3, §4, §5

[5] = Michaelis-Menten kinetics of bupropion formation in pooled human liver microsomes; format: in vitro ADME; design: intrinsic hepatic clearance (Cli, h): unit not given here
Description: Microsomes, NADPH regenerating solutions A and B were thawed rapidly to 37 °C, and then kept on ice until ready for use. Substrate solutions were prepared (1–500 µM) where the maximum concentration of DMSO was 1%, and the concentration of microsomes, NADPH regenerating solution B and phosphate buffer was fixed. After incubation for 5 min, NADPH regenerating solution A was added and the metabolism was initiated. Final volume was 100 μL. The tube was inverted twice and vortex mixed. The final concentrations of prodrug in this solution was 1–500 µM, HLM (0.1 mg/mL) or HIM (0.02 mg/mL), NADP^+ (1.3 mM), glucose-6-phosphate dehydrogenase (0.4 U/mL) and 1.0% DMSO. This solution was incubated for 20 min at 37 °C. The reaction was quenched by addition of 100 µL of acetonitrile. The mixture was centrifuged at 10,000 × g for 10 min. The supernatant was analyzed by LC-MS analysis.

[6] = Microsomal metabolic stability screen, pooled human liver microsomes (HLM); format: in vitro ADME; details: 10 µM prodrug, 0.1 mg/mL HLM, NADPH regenerating system, 37 °C, 60 min, n = 2; LOD 0.1 ng/mL
Description: Human liver microsome (HLM) stock solution preparation. HLM (0.5 mL) stock was added to PBS solution (9.5 mL). Final concentration; 1 mg/mL. The PBS solution was prepared by addition of one USP PBS tablet (Sigma-Aldrich catalogue number P4417) dissolved in 200 mL deionised water.
as §1
After passing through the intestinal membrane into the portal circulation the prodrug quickly enters the liver. This metabolic condition was simulated in the present work by using pooled human liver microsomes (HLM).

[7] = In vitro metabolic screen in the five media (SGF, SIF, HIM, HLM, PHP), overall statement; format: in vitro ADME; details: 37 °C, one hour, statement in words
Source text: A summary of the oral prodrug candidate matrix we developed is illustrated in Figure 2. It contained six main conditions and can be applied to the development of any drug candidate. The work plan starts out with a concept molecule which in this case was bupropion. At this stage prodrug candidates are identified and the literature is searched for transformations that have been reported and methods used to carry out these transformations. […] After synthesis and purification of each potential prodrug, full spectroscopic characterization was performed. Each prodrug was screened in the metabolic media to assess its stability. Potential prodrug candidates were then selected for further in vitro enzyme kinetic and hydrolysis studies to evaluate the most likely prodrug for further in vivo assessment.
The five media (SGF, SIF, HIM, HLM and PHP) best represent the transit a drug or prodrug would take if delivered by the oral route of administration.

Structure (SMILES)	Primary product detected in media HIM [1]	Primary product detected in media SIF [2]	Primary product detected in media PHP [3]	Primary product detected in media SGF [4]	intrinsic hepatic clearance (Cli, h) ([5]; from HLM Michaelis-Menten parameters)	Vmax of bupropion formation ([5]; pooled HLM 0.1 mg/mL, substrate 1–500 µM, 20 min, 37 °C, n = 6) [pmol/min/mg HLM]	Primary product detected in media HLM [6]	Product / activation to bupropion or its metabolites on screening in the metabolic media [7]	stability / hydrolysis in simulated gastric fluid (SGF pH 1.2, 37 °C)	stability at physiological pH (phosphate buffered saline pH 7.4, 37 °C)
CC(C(=O)c1cccc(Cl)c1)N(Cc1ccccc1)C(C)(C)C (racemic) [Compound 5, Rac-N-benzyl bupropion]	The major product was bupropion	<LOD	<LOD	<LOD	87	1323 ± 42.2	The major product was bupropion	–	–	–
CC1C(c2cccc(Cl)c2)=NOCN1C(C)(C)C (racemic) [Compound 10, Rac-oxadiazine of bupropion]	–	<LOD	<LOD	<LOD	–	–	–	–	–	–
CC1C(c2cccc(Cl)c2)=NOC(=O)N1C(C)(C)C (racemic) [Compound 11, Rac-oxadiazinone of bupropion]	<LOD	<LOD	<LOD	<LOD	–	–	<LOD	resistant to all of the screening conditions	–	–
CO/C(=C(/C)N(C)C(C)(C)C)c1cccc(Cl)c1 [Compound 6, E/Z-N,O-dimethylated bupropion]	–	<LOD	<LOD	<LOD	–	–	–	N-methylbupropion (4)	–	–
CO/C(=C(/C)N(Cc1ccccc1)C(C)(C)C)c1cccc(Cl)c1 [Compound 7, (E/Z)-O-methyl N-benzyl bupropion]	O-demethylated to N-benzylbupropion (5)	<LOD	<LOD	<LOD	–	–	O-demethylated to N-benzylbupropion (5)	–	–	–
CC(=O)O/C(=C(/C)N(C(C)=O)C(C)(C)C)c1cccc(Cl)c1 [Compound 8, (E/Z)-N,O-diacetylated bupropion]	<LOD	<LOD	<LOD	<LOD	–	–	<LOD	did not result in any activation back to bupropion or its metabolites	–	–
CC(NC(C)(C)C)/C(=N/O)c1cccc(Cl)c1 (stereo not drawn) [Compound 9, syn- and anti-bupropion hydroxyimine]	<LOD	<LOD	<LOD	<LOD	–	–	<LOD	neither bupropion nor any of its metabolites were detected	none was detected	much greater stability than bupropion
Cc1c(-c2cccc(Cl)c2)oc(=O)n1C(C)(C)C [Compound 12, oxazolone of bupropion]	<LOD	<LOD	<LOD	<LOD	–	–	<LOD	no bupropion or metabolites thereof detected	–	–
